Laboratory results from patent publication US6790936B1, “CAI resistance proteins and uses thereof” (The United States of America as represented by the …, priority 1994, dated 2004).

How the values were obtained:
Format in all cases: cell-based, human
OVCAR3 cells = test: Culture of CAI resistant cells (OVCAR3); conditions: cells chronically resistant to 10 μM and 20 μM CAI
Experimental: (§1) Low passage (passage 13) parental human melanoma cells (A2058), and human ovarian cancer cells (OVCAR3) were cultured in Dulbecco's Modified Eagles medium (DMEM) supplemented with 10% fetal calf serum (FCS) and pen/strep (penicillin and streptomycin). Over a period of 24 to 30 months, the cells were incubated with increasing concentrations of CAI starting with 0.1 μM and reaching 45 μM. The CAI, obtained from the Developmental Therapeutics Program of the National Cancer Institute, was dissolved in DMSO and aliquots were stored at −70° C. until used. The diluted CAI was added directly into the media as required. Continuous selective pressure with CAI was maintained throughout culture and was maintained throughout all experiments. OVCAR3 cells chronically resistant to 10 μM and 20 μM CAI were also established.

CAIR-1 = test: Northern analysis of CAIR-1 expression in A2058-20R versus parental A2058 cells; conditions: A2058-20R (20 μM CAI) vs parental A2058 total RNA, compared to GAPDH housekeeping gene control
From the text: The subtracted probe was first hybridized against a Northern blot of total RNA from parental A2058 cells and CAI resistant A2058-20R cells. Increased expression of a number of transcripts was seen (FIG. 1, upper left panel). Re-hybridization of the blot with radiolabeled GAPDH as a housekeeping gene confirmed the […] (FIG. 1, lower left panel).
A cDNA library was constructed from A2058-20R cells by Stratagene (La Jolla, Calif., USA). The library was probed using standard approaches (Id.) and the positive probes were plaque purified. Forty-one clones were selected and 35 were determined to be nonoverlapping by restriction digest. Fifteen were randomly selected for determination of their expression by Northern analysis. Inserts were purified by low melting point agarose gel electrophoresis and then radiolabeled with standard random primer conditions (Amersham, Little Chalfont, Bucks, United Kingdom) and hybridized with a Northern of parental (wildtype) total RNA and RNA from A2058-20R cells. […] The CAIR-1 cDNA (clone 21DBB insert) was sequenced using standard dideoxy-sequencing (SequenaseII kit) with 35S-dATP label. The cDNA sequence is shown in Seq. Id No. 1.

[1] = test system: A2058 CAI resistant cells; test: Culture of CAI resistant cells (A2058); conditions: chronic culture under continuous CAI, 10, 20, 30 and 40 μM
Experimental: as §1, with “experiments.” for “experiments. OVCAR3 cells chronically resistant to 10 μM and 20 μM CAI were also established.”
No overt differences in morphology of the A2058 CAI resistant cells was observed.

NC(=O)c1nnn(Cc2cc(Cl)c(C(=O)c3ccc(Cl)cc3)c(Cl)c2)c1N [CAI, Carboxyamido-triazole]
growth rates of OVCAR3 cells in the CAI treatments (OVCAR3 cells): slightly lower growth rates | increased expression of CAIR-1 cDNA (clone 21DBB) in response to culture with CAI (CAIR-1): 3.8 fold | growth rate of A2058 CAI resistant cells [1]: not attenuated until the 40 μM treatment in which it decreased somewhat
